Experimental data: PMC6624251, “Isoform-specific Inhibition of N-methyl-D-aspartate Receptors by Bile Salts” (Scientific Reports, 2019)
Read-outs that look alike come from different tables or passages of the source.

Legend:
GluN3B Ser701 to Ala = GluN3B Ser701 to Ala (Mus musculus, UniProt Q91ZU9, S701A); assay: Two-electrode voltage clamp of GluN3B point mutant Ser701 to Ala in oocytes; assay type: cell-based; details: for Increase in block for the mutant compared with wild type: 100 µM bile salt, n = 11–13
Sequence of GluN3B Ser701 to Ala (Q91ZU9 25-1003 S701A, other chains not shown): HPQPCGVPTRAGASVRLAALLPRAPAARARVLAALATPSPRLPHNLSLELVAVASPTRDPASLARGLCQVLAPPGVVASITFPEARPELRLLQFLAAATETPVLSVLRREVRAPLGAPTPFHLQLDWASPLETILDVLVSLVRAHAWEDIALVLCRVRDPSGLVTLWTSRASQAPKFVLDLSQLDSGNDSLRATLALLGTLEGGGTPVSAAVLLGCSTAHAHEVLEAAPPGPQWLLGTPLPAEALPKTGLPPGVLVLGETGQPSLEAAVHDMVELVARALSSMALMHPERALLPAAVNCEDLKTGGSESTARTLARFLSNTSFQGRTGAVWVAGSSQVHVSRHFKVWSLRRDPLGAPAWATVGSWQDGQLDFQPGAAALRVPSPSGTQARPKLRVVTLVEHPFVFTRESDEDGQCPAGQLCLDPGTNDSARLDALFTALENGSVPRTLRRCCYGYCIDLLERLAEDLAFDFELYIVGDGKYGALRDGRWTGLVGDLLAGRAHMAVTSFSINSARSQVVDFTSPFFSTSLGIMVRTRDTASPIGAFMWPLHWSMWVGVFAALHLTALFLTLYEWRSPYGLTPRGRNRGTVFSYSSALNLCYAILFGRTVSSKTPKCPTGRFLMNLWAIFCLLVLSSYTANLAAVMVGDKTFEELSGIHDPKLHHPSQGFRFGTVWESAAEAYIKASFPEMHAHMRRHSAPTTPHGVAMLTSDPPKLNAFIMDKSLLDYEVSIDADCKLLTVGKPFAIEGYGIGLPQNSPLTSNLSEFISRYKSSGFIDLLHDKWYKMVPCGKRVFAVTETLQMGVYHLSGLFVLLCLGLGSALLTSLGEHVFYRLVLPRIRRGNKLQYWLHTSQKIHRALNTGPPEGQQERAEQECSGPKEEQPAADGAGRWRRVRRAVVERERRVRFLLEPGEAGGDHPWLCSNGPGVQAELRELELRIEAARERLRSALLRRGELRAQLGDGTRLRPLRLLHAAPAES
Description: (§1) The resulting EC50 or IC50 values were averaged.

GluN1/GluN3B receptors = GluN1/GluN3B receptors (Mus musculus, UniProt Q91ZU9); assay: Two-electrode voltage clamp of recombinant NMDARs in Xenopus laevis oocytes (GluN3B); details: for maximum block by tauro-CDC / IC50: n = 6; for IC50: read-out: mean IC50 for tauro-CDC
Sequence of GluN1/GluN3B receptors (Q91ZU9 25-1003, other chains not shown): as the sequence (Q91ZU9 25-1003 S701A, other chains not shown) above, with A677S counted along it
Description: (§2) The cDNAs coding for NMDA and kainate receptors, subcloned into pSGEM for expression in Xenopus laevis oocytes, were kindly provided by Michael Hollmann (Ruhr University Bochum). AMPA receptor cDNAs were inserted in pGEM-HE for cRNA synthesis. The following cDNAs were used: GluN1-1a (U08261), GluN2A (NM_012573), GluN2B (NM_012574), GluN2D (U08260), GluN3B (NM_130455), GluK2 (NM_019309), GluA1 (NM_031608) and GluA2 (M38061). These cDNAs are from rat except for GluN3B, which is from mouse. Point mutants were generated by polymerase chain reaction (PCR)-directed mutagenesis with specific mismatch primers (biomers.net). cRNA was synthesized from 1 µg of linearized plasmid DNA using an in vitro transcription kit (mMESSAGE mMACHINE® T7 Transcription Kit, Thermo Fisher Scientific).
(§3) Oocytes were obtained from parts of the ovaries surgically removed from Xenopus laevis in accordance with German law and approved by the local authorities of the Heinrich Heine University of Düsseldorf. Lumps of around 20 oocytes were incubated with 10 mg/ml collagenase type 2 (Worthington Biochemical Corporation) for 1–1.5 h in Ca^2+-free Barth’s solution (in mM: 88 NaCl, 1 KCl, 2.4 NaHCO3, 0.82 MgSO4, 20 HEPES, pH adjusted to 7.5 with NaOH) with slow agitation to remove the follicular cell layer and then washed extensively with Barth’s solution containing Ca^2+ (in mM: 88 NaCl, 1 KCl, 2.4 NaHCO3, 0.82 MgSO4, 0.41 CaCl2, 0.33 Ca(NO3)2, 20 HEPES, pH adjusted to 7.5 with NaOH) to inactivate the collagenase. Oocytes were maintained in Barth’s solution charged with antibiotic and antimycotic solution (containing penicillin, streptomycin and amphotericin B, Sigma-Aldrich) at 18 °C. Alternatively, Xenopus laevis oocytes were purchased from EcoCyte Bioscience (Castrop-Rauxel, Germany). Within 24 h after surgery, oocytes of stages V-VI were injected with 3.8 ng GluN1 and 5 ng GluN2A or GluN2B cRNAs, 7.6 ng GluN1 and 10 ng GluN2D cRNA or 7.6 ng GluN1 and 6.4 ng GluN3B-cRNA per oocyte (molecular GluN1 to GluN2 ratio: 1:1; GluN1 to GluN3 ratio: 1:1) using a Micro4 nanoliter injector (World Precision Instruments, Sarasota, FL, USA).
(§4) Two-electrode voltage clamp recordings of oocyte current responses were performed 3–5 days after cRNA injection at −70 mV holding potential with a Turbo Tec-03X amplifier (npi electronic, Germany) controlled by Pulse software (HEKA, Germany). Electrodes were filled with 3 M KCl and had resistances of 0.5–1.5 MΩ. […] Agonists and bile salts were applied for 20–40 s by superfusion. Agonist and bile salt blocker potencies were determined by recording current responses induced by the application of increasing agonist concentrations or increasing bile salt concentration to the same oocyte. Agonist-induced currents were normalized to the maximum response under saturating agonist concentration. In case of inhibition by bile salts the relative reduction in agonist-induced current was determined. Data from each oocyte was fitted separately to the Hill equation using Origin 9 software. The resulting EC50 or IC50 values were averaged. Current-voltage relationships were determined by ramping the holding potential from −140 mV to +50 mV corrected for background conductivities. Data are reported as mean ± standard error of the mean (SEM). Statistical significance was determined using the unpaired, two-tailed Student’s t-test.

GluN1/GluN2D receptors = GluN1/GluN2D receptors (Rattus norvegicus, UniProt P35439+Q62645); assay: Two-electrode voltage clamp of recombinant NMDARs in Xenopus laevis oocytes (GluN2D); details: for IC50: read-out: IC50 Tauro-CDC
Sequence of GluN1/GluN2D receptors (Q62645 28-1323, other chains not shown): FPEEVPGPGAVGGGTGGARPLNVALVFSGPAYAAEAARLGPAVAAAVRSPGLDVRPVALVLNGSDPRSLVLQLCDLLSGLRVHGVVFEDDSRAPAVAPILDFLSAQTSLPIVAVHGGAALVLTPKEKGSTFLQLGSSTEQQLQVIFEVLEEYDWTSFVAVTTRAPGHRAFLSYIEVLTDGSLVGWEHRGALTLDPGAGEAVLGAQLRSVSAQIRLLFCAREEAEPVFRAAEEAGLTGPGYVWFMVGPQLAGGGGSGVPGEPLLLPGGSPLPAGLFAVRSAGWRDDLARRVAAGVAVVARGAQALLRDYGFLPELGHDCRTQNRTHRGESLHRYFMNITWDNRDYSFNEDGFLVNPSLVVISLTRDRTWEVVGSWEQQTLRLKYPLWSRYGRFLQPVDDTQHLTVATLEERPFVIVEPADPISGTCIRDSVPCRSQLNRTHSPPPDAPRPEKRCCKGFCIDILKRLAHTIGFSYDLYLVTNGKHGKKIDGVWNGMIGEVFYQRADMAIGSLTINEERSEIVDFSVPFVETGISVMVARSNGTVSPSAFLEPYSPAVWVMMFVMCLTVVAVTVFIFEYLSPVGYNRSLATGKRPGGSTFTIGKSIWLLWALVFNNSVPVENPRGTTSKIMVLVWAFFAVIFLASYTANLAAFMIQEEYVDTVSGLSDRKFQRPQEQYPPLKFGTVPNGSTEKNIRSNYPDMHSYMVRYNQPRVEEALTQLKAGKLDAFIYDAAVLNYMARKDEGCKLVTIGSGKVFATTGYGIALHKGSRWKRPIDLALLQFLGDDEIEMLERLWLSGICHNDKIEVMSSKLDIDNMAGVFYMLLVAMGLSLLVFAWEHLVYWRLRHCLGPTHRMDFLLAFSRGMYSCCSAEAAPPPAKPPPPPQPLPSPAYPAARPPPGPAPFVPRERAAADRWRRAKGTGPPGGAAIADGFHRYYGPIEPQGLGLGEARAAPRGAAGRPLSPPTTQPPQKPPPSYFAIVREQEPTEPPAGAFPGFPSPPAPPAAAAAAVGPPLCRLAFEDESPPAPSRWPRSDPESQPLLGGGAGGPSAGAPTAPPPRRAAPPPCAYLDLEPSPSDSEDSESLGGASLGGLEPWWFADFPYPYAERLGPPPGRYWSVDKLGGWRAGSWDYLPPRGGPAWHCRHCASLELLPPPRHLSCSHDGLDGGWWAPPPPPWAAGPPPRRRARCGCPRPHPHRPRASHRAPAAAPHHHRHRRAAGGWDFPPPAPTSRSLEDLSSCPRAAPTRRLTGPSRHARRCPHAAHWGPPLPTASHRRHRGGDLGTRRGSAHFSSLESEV
Description: as §2, §3, §4

NMDAR = system: NMDAR; set-up: method as in PMID 1372086; details: read-out: reported EC50; cited from earlier work
GluN3B Tyr505 to Ala = GluN3B Tyr505 to Ala (Mus musculus, UniProt Q91ZU9, Y505A); details: n = 9
Sequence of GluN3B Tyr505 to Ala (Q91ZU9 25-1003 Y505A, other chains not shown): as the sequence (Q91ZU9 25-1003 S701A, other chains not shown) above, with Y481A, A677S counted along it
Description: AMPA receptor cDNAs were inserted in pGEM-HE for cRNA synthesis. The following cDNAs were used: GluN1-1a (U08261), GluN2A (NM_012573), GluN2B (NM_012574), GluN2D (U08260), GluN3B (NM_130455), GluK2 (NM_019309), GluA1 (NM_031608) and GluA2 (M38061). These cDNAs are from rat except for GluN3B, which is from mouse. Point mutants were generated by polymerase chain reaction (PCR)-directed mutagenesis with specific mismatch primers (biomers.net). cRNA was synthesized from 1 µg of linearized plasmid DNA using an in vitro transcription kit (mMESSAGE mMACHINE® T7 Transcription Kit, Thermo Fisher Scientific). […]
Two-electrode voltage clamp recordings of oocyte current responses were performed 3–5 days after cRNA injection at −70 mV holding potential with a Turbo Tec-03X amplifier (npi electronic, Germany) controlled by Pulse software (HEKA, Germany). […] Agonist and bile salt blocker potencies were determined by recording current responses induced by the application of increasing agonist concentrations or increasing bile salt concentration to the same oocyte. […] In case of inhibition by bile salts the relative reduction in agonist-induced current was determined. […] Current-voltage relationships were determined by ramping the holding potential from −140 mV to +50 mV corrected for background conductivities. […] Statistical significance was determined using the unpaired, two-tailed Student’s t-test.

[1] = molecular target: AMPA receptor GluA1/GluA2 (Rattus norvegicus, UniProt P19490+P19491); assay: Two-electrode voltage clamp of AMPA receptor in Xenopus laevis oocytes; assay type: cell-based; details: 100 µM CDC; n = 6
Sequence of AMPA receptor GluA1/GluA2 (P19490 19-907): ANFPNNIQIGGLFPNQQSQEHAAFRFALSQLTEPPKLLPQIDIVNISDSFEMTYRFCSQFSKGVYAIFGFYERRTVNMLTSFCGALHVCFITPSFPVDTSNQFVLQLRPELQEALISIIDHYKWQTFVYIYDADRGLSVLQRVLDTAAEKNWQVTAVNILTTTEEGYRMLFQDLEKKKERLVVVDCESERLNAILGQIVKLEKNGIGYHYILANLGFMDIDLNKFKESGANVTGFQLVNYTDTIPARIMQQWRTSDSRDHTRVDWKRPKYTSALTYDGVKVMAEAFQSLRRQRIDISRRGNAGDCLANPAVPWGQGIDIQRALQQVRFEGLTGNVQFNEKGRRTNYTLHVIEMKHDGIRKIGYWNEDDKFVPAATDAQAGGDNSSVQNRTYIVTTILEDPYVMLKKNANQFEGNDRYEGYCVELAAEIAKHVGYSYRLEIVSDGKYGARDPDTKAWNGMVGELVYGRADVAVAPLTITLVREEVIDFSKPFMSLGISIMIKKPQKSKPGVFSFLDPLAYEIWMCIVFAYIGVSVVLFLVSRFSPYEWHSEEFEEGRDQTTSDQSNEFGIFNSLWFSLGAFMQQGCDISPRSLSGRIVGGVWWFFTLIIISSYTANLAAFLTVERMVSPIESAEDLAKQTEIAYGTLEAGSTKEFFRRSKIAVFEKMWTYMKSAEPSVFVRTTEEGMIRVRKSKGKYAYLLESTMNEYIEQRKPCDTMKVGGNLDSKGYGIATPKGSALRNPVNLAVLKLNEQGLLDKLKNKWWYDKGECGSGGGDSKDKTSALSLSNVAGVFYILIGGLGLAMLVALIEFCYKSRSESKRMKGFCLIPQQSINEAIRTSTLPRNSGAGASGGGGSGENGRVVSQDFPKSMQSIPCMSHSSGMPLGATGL
Sequence of AMPA receptor GluA1/GluA2 (P19491 22-883): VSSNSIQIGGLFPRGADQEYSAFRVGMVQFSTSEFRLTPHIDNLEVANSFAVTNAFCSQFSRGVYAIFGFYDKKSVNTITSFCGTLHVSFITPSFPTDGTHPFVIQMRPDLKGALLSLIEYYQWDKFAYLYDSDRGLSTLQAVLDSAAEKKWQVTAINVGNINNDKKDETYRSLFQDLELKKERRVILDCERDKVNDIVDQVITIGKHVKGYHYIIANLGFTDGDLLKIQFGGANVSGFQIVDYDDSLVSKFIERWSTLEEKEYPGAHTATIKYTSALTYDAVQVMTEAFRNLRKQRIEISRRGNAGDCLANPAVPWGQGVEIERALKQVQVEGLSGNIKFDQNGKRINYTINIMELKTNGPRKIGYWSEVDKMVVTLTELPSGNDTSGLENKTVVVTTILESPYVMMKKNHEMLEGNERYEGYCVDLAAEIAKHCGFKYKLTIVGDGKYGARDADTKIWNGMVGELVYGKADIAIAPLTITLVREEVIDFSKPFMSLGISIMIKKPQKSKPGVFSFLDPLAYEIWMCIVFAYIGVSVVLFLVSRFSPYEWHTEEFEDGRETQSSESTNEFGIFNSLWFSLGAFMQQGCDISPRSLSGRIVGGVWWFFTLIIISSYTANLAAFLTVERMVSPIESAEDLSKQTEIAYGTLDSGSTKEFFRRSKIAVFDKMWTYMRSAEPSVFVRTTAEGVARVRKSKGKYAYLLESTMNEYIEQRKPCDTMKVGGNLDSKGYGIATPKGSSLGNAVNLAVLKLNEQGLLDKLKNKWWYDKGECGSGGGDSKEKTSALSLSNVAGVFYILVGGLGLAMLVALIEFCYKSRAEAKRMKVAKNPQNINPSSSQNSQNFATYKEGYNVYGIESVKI
Description: as §1

kainate receptor GluK2 = kainate receptor GluK2 (Rattus norvegicus, UniProt P42260); assay: Two-electrode voltage clamp of kainate receptor in Xenopus laevis oocytes; assay type: cell-based; details: 100 µM CDC; after block of desensitization with ConA; n = 3
Sequence of kainate receptor GluK2 (P42260 32-908): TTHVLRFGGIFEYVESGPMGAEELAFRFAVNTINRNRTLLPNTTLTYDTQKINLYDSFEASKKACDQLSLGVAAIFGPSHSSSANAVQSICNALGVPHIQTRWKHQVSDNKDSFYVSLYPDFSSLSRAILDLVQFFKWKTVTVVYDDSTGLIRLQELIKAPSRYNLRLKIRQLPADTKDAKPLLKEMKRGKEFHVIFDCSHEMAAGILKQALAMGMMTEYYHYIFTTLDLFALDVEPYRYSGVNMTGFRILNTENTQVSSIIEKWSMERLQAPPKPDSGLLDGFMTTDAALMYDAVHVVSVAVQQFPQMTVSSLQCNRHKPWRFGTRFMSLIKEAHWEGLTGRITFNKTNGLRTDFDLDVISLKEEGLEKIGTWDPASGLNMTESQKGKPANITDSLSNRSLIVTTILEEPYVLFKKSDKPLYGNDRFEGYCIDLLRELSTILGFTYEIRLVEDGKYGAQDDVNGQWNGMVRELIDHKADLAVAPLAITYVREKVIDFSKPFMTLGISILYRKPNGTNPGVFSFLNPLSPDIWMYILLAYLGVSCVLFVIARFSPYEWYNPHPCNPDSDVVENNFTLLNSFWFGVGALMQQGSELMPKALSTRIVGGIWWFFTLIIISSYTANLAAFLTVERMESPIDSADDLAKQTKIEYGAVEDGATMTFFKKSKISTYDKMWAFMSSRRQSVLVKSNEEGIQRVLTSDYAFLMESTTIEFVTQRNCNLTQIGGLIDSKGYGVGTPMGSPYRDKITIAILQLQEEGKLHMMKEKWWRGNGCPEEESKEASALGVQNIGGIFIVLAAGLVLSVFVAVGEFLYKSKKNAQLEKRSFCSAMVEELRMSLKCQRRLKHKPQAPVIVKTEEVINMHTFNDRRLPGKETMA
Description: as §1

uninjected oocytes = assay: Agonist application to uninjected oocytes; assay type: cell-based, Xenopus laevis; details: n = 3
Description: as §1

With `C[C@H](CCC(=O)NCCS(=O)(=O)O)[C@H]1CC[C@H]2[C@@H]3[C@H](O)C[C@@H]4C[C@H](O)CC[C@]4(C)[C@H]3CC[C@]12C` [Tauro-CDC] the “Increase in block for the mutant compared with wild type” value (GluN3B Ser701 to Ala) was 15%, the “maximum block by tauro-CDC” value (GluN1/GluN3B receptors; 5 μM glycine) was 92 ± 3% and the “maximum block by tauro-CDC” value (GluN1/GluN3B receptors; 10 μM glycine) was 95 ± 3%. For the same compound, the “Effect in the absence of NMDAR agonists (partial agonist action)” value (GluN1/GluN3B receptors; 100 µM tauro-CDC, n = 4) was “no effects”, the “Effect on I/V relationship and reversal potential of agonist-induced currents” value (GluN1/GluN3B receptors; 100 µM tauro-CDC, n = 10–11) was “did neither change the shape of I/V relationships nor did it shift the reversal potentials” and the IC50 (GluN1/GluN3B receptors; in the presence of 5 μM glycine) was 44 ± 7 µM. For the same compound, the IC50 (GluN1/GluN3B receptors; in the presence of 10 μM glycine) was 83 ± 8 µM, the “Reduction of QN-induced GluN3B currents” value (GluN1/GluN3B receptors; tauro-CDC 100 µM, QN 7.2 mM, n = 5) was “about 68 ± 4%” and the “max. block by Tauro-CDC” value (GluN1/GluN2D receptors; 10 µM Gly, 0.51 µM Glu) was 100 ± 4 (11) %. The “max. block by Tauro-CDC” value (GluN1/GluN2D receptors; 10 µM Gly, 150 µM Glu) was 87 ± 3 (13) %, the “Block of L-HCA-induced GluN2D currents” value (GluN1/GluN2D receptors; 100 µM tauro-CDC, L-HCA 13 µM, 10 µM glycine co-agonist, n = 12) was 30 ± 2% and the “Inhibition of QN-induced GluN2D currents” value (GluN1/GluN2D receptors; 100 µM tauro-CDC, QN 1 mM, 10 µM glycine co-agonist, n = 7) was 29 ± 2%. For the same compound, the “Reduction of QN-induced GluN2D currents” value (GluN1/GluN2D receptors; 100 µM tauro-CDC, QN 7.2 mM, 10 µM glycine co-agonist, n = 7) was 26 ± 2%, the “Effect in the absence of NMDAR agonists (partial agonist action)” value (GluN1/GluN2D receptors; 100 µM tauro-CDC, n = 4) was “no effects” and the “Effect on I/V relationship and reversal potential of agonist-induced currents” value (GluN1/GluN2D receptors; 100 µM tauro-CDC, n = 10–11) was “did neither change the shape of I/V relationships nor did it shift the reversal potentials”. For the same compound, the “max. block by Tauro-CDC” value (GluN1/GluN2D receptors; […] Gly, 150 µM Glu) was 98 ± 3 (8) %, the IC50 (GluN1/GluN2D receptors; 10 µM Gly, 0.51 µM Glu) was 137 ± 8 µM and the IC50 (GluN1/GluN2D receptors; 10 µM Gly, 150 µM Glu (saturating agonist concentration)) was 179 ± 11 µM. The IC50 (GluN1/GluN2D receptors; […] Gly, 150 µM Glu) was 153 ± 8 µM.
In the case of `N[C@@H](CCS(=O)(=O)O)C(=O)O` [L-HCA, L-homocysteic acid], the “Activation of GluN3B by agonist” value (GluN1/GluN3B receptors; concentrations of up to 1 mM, n = 4) is listed as “could not be activated” and the EC50 (NMDAR) is listed as 13 µM.
For `N[C@@H](CCC(=O)O)C(=O)O` [Glu, glutamate], the “max. Glu-induced current [normalized]” value (GluN1/GluN2D receptors; 10 µM Gly) was 1.00 ± 0.17 (7) and the “max. Glu-induced current [normalized]” value (GluN1/GluN2D receptors; 10 µM Gly + 180 µM Tauro-CDC) was 0.25 ± 0.06 (7).
With `NCC(=O)O` [Gly, glycine] the glycine-induced currents (GluN3B Ser701 to Ala; Ser701 to Ala mutant, n = 29) was 106 ± 12 nA, the glycine-induced currents (GluN1/GluN3B receptors; wild type, n = 30) was 835 ± 85 nA and the “Activation of mutant receptor by agonist” value (GluN3B Tyr505 to Ala) was “could not be activated”.
With `C[C@H](CCC(=O)O)[C@H]1CC[C@H]2[C@@H]3[C@H](O)C[C@@H]4C[C@H](O)CC[C@]4(C)[C@H]3CC[C@]12C` [CDC, chenodeoxycholate] the “Increase in block for the mutant compared with wild type” value (GluN3B Ser701 to Ala) was 15%, the “Reduction of GluA1/GluA2 currents” value [1] was 7 ± 1% and the “Inhibition of glutamate-induced steady-state GluK2 current” value (kainate receptor GluK2) was “no inhibition”.
For `O=C(O)c1cccnc1C(=O)O` [QN, quinolinic acid], the “Effect on uninjected oocytes” value (uninjected oocytes) is listed as “no effect” and the EC50 (NMDAR) is listed as 7200 µM.
